Legend:
Test in all cases: KINOMEscan
Type in all cases: binding
Conditions in all cases: 2000 nM
YANK2 = molecular target: T1, YANK2 (Homo sapiens, UniProt Q9NY57)
T1 construct: purchased KINOMEscan (DiscoveRx) panel service

AURKA = molecular target: T2, AURKA (Homo sapiens, UniProt O14965)
T2 construct: DNA label (qPCR read-out); purchased KINOMEscan scanMAX panel (DiscoveRx)

p38-beta = molecular target: T3, p38-beta (Homo sapiens, UniProt Q15759)
T3 construct: purchased DiscoverX (KINOMEscan service)
T3 sequence (Q15759 whole entry): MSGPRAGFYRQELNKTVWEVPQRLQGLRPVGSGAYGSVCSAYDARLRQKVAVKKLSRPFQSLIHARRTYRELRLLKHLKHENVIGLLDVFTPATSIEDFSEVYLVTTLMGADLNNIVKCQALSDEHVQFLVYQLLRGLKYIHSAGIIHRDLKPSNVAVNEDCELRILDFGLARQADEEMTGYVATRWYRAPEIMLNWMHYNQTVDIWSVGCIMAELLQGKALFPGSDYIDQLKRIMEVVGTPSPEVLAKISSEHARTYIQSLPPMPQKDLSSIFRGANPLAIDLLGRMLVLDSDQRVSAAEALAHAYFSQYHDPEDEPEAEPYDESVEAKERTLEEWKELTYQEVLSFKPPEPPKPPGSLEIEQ

DRAK1 = molecular target: T4, DRAK1 (Homo sapiens, UniProt Q9UEE5)
T4 construct: DNA label (qPCR read-out); purchased KINOMEscan (DiscoveRx) panel

[1] = molecular target: T5, JAK2(JH1domain-catalytic) (Homo sapiens, UniProt O60674)
T5 construct: JAK2(JH1domain-catalytic); DNA label (for qPCR read-out); purchased DiscoveRx (KINOMEscan scanMAX panel)

AAK1 = molecular target: T6, AAK1 (Homo sapiens, UniProt Q2M2I8)
T6 construct: DNA label (qPCR read-out); purchased DiscoverX (KINOMEscan service)

GAK = molecular target: T7, GAK (Homo sapiens, UniProt O14976)
T7 construct: purchased KINOMEscan (DiscoveRx)

MYLK = molecular target: T8, MYLK (Homo sapiens, UniProt Q15746)
T8 construct: DNA label (for qPCR read-out); purchased KINOMEscan scanMAX panel (DiscoveRx)

BMPR1B = molecular target: T9, BMPR1B (Homo sapiens, UniProt O00238)
T9 construct: DNA label (for qPCR read-out); purchased KINOMEscan scanMAX panel (DiscoveRx)

DAPK2 = molecular target: T10, DAPK2 (Homo sapiens, UniProt Q9UIK4)
T10 construct: DNA label; purchased DiscoveRx (KINOMEscan scanMAX panel)
T10 sequence (Q9UIK4 whole entry): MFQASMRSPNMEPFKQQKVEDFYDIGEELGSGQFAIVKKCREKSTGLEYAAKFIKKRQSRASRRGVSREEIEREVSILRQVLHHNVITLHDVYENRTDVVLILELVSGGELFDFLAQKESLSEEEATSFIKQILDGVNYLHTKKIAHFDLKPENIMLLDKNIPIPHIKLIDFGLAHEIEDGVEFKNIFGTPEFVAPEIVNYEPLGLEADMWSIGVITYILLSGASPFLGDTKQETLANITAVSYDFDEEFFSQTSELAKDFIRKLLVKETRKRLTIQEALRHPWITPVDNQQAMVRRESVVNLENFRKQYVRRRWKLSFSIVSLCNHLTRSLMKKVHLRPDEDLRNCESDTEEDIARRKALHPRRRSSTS

IKK-beta = molecular target: T11, IKK-beta (Homo sapiens, UniProt O14920)
T11 construct: DNA label (qPCR read-out); purchased KINOMEscan (DiscoveRx) ScanMAX panel

MAPKAPK5 = MAPKAPK5 (Homo sapiens, UniProt Q8IW41)
SRPK2 = molecular target: T12, SRPK2 (Homo sapiens, UniProt P78362)
T12 construct: purchased KINOMEscan (DiscoveRx)

TBK1 = molecular target: T13, TBK1 (Homo sapiens, UniProt Q9UHD2)
T13 construct: DNA label (for qPCR read-out); purchased DiscoveRx (KINOMEscan scanMAX panel, contract assay)

CDK11 (CDK19) = molecular target: T14, CDK11 (CDK19) (Homo sapiens, UniProt Q9BWU1)
T14 construct: purchased DiscoverX (KINOMEscan service)
T14 sequence (Q9BWU1 whole entry): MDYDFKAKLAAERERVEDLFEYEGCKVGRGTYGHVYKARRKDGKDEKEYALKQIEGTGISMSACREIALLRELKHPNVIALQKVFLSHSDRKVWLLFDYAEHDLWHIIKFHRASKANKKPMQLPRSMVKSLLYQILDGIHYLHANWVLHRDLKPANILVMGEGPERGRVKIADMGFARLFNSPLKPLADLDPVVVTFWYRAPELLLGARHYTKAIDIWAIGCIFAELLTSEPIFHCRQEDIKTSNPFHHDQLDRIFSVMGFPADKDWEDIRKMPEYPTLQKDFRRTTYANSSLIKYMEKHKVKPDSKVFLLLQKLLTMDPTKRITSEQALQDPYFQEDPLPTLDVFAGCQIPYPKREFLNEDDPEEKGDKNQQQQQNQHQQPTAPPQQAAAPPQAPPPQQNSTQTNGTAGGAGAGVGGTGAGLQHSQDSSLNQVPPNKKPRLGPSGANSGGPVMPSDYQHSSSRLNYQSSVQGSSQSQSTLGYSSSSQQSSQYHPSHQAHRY

DCAMKL1 = molecular target: T15, DCAMKL1 (Homo sapiens, UniProt O15075)
T15 construct: DNA label (qPCR read-out); purchased KINOMEscan (DiscoveRx) panel

BMPR2 = molecular target: T16, BMPR2 (Homo sapiens, UniProt Q13873)
T16 construct: DNA label (for qPCR read-out); purchased KINOMEscan scanMAX panel (DiscoveRx)

[2] = molecular target: T17, RSK4(Kin.Dom.2-C-terminal) (Homo sapiens, UniProt Q9UK32)
T17 construct: RSK4(Kin.Dom.2); purchased DiscoveRx (KINOMEscan scanMAX panel)

TTK = molecular target: T18, TTK (Homo sapiens, UniProt P33981)
T18 construct: DNA label (for qPCR read-out); purchased DiscoveRx (KINOMEscan scanMAX panel)

PIK3CA(H1047L) = molecular target: T19, PIK3CA(H1047L) (Homo sapiens, UniProt P42336, H1047L)
T19 construct: DNA label; purchased DiscoveRx (KINOMEscan scanMAX panel)

YANK3 = molecular target: T20, YANK3 (Homo sapiens, UniProt Q86UX6)
T20 construct: purchased KINOMEscan (DiscoveRx) panel service

ALK(C1156Y) = molecular target: T21, ALK(C1156Y) (Homo sapiens, UniProt Q9UM73, C1156Y)
T21 construct: DNA label (qPCR read-out); purchased KINOMEscan scanMAX panel (DiscoveRx)

STK36 = molecular target: T22, STK36 (Homo sapiens, UniProt Q9NRP7)
T22 construct: DNA label (for qPCR read-out); purchased DiscoveRx (KINOMEscan scanMAX panel, contract assay)
T22 sequence (Q9NRP7 whole entry): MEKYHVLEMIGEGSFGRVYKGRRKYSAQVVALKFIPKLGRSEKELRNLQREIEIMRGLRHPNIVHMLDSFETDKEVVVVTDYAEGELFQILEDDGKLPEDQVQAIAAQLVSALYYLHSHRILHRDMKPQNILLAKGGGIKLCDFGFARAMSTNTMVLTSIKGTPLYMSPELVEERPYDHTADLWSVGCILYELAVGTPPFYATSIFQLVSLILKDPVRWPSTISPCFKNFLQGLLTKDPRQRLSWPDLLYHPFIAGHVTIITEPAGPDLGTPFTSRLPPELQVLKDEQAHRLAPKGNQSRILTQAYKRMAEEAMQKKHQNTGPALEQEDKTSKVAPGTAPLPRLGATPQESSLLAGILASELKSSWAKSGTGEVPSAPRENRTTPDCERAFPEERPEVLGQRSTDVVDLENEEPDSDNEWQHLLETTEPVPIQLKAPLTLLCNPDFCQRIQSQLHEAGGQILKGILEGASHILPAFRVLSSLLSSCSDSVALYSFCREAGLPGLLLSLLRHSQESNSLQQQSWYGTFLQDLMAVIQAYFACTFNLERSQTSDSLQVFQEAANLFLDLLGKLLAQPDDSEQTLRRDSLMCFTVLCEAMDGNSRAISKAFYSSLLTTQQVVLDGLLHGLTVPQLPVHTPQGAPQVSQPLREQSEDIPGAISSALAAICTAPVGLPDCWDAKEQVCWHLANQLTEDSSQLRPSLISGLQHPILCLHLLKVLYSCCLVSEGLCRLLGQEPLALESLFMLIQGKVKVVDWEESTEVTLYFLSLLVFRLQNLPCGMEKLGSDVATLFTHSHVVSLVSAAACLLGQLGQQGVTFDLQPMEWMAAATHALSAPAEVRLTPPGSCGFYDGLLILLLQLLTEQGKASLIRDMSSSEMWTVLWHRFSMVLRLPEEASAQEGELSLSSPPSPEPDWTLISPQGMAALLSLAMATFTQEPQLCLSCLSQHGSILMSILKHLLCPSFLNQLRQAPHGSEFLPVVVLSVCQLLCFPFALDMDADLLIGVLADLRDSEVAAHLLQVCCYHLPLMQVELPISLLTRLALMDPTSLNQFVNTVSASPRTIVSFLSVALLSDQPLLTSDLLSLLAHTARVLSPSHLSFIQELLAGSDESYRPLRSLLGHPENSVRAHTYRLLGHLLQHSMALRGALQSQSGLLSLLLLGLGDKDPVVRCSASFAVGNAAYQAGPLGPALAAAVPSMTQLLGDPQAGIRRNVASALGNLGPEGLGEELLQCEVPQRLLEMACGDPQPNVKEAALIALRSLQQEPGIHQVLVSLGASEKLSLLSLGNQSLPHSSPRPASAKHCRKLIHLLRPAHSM

[3] = molecular target: T23, TYK2(JH1domain-catalytic) (Homo sapiens, UniProt P29597)
T23 construct: JH1domain; DNA label (for qPCR read-out); purchased DiscoveRx (KINOMEscan scanMAX panel)
T23 sequence (P29597 897-1176 limits assumed): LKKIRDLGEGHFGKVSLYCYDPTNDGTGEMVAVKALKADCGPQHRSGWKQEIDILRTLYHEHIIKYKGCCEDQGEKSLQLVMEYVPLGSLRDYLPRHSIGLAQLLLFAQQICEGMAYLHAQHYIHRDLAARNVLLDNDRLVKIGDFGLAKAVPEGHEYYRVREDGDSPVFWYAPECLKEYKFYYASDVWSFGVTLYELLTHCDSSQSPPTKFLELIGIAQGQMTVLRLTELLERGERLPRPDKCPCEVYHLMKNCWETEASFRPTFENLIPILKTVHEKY

LIMK2 = molecular target: T24, LIMK2 (Homo sapiens, UniProt P53671)
T24 construct: purchased KINOMEscan (DiscoveRx) panel service

TSSK1B = molecular target: T25, TSSK1B (Homo sapiens, UniProt Q9BXA7)
T25 construct: DNA label (for qPCR read-out); purchased DiscoveRx (KINOMEscan scanMAX panel)

[4] = molecular target: T26, EGFR(L747-S752del, P753S) (Homo sapiens, UniProt P00533, DEL747-752/P753S)
T26 construct: purchased DiscoveRx (KINOMEscan scanMAX panel)

ERK1 = molecular target: T27, ERK1 (Homo sapiens, UniProt P27361)
T27 construct: DNA label (qPCR read-out); purchased DiscoveRx (KINOMEscan ScanMAX panel)

MET(Y1235D) = molecular target: T28, MET(Y1235D) (Homo sapiens, UniProt P08581, Y1235D)
T28 construct: purchased DiscoveRx (KINOMEscan scanMAX panel, service)

PRKG2 = molecular target: T29, PRKG2 (Homo sapiens, UniProt Q13237)
T29 construct: purchased DiscoveRx (KINOMEscan scanMAX panel)
T29 sequence (Q13237 whole entry): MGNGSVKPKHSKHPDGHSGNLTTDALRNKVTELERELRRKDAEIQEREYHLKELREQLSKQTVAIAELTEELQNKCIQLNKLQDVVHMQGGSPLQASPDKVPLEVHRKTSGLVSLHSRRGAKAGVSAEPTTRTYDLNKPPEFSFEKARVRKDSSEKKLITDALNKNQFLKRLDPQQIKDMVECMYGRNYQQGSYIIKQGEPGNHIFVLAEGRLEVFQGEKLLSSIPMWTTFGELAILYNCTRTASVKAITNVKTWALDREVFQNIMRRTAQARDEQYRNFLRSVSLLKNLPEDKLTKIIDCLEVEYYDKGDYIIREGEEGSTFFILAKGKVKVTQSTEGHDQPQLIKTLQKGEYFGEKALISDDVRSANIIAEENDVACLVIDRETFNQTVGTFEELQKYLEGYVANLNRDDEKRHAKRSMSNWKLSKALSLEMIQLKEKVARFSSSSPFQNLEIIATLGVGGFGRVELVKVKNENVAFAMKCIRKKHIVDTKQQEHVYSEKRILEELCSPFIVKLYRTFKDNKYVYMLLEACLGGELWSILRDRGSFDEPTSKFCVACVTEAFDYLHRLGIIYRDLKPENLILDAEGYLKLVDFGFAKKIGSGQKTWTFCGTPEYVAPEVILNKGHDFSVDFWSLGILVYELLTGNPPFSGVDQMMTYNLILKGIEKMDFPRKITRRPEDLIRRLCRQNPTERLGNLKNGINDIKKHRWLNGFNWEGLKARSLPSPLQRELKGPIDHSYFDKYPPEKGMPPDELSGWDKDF

EPHB4 = molecular target: T30, EPHB4 (Homo sapiens, UniProt P54760)
T30 construct: purchased DiscoveRx (KINOMEscan scanMAX panel)
T30 sequence (P54760 16-987): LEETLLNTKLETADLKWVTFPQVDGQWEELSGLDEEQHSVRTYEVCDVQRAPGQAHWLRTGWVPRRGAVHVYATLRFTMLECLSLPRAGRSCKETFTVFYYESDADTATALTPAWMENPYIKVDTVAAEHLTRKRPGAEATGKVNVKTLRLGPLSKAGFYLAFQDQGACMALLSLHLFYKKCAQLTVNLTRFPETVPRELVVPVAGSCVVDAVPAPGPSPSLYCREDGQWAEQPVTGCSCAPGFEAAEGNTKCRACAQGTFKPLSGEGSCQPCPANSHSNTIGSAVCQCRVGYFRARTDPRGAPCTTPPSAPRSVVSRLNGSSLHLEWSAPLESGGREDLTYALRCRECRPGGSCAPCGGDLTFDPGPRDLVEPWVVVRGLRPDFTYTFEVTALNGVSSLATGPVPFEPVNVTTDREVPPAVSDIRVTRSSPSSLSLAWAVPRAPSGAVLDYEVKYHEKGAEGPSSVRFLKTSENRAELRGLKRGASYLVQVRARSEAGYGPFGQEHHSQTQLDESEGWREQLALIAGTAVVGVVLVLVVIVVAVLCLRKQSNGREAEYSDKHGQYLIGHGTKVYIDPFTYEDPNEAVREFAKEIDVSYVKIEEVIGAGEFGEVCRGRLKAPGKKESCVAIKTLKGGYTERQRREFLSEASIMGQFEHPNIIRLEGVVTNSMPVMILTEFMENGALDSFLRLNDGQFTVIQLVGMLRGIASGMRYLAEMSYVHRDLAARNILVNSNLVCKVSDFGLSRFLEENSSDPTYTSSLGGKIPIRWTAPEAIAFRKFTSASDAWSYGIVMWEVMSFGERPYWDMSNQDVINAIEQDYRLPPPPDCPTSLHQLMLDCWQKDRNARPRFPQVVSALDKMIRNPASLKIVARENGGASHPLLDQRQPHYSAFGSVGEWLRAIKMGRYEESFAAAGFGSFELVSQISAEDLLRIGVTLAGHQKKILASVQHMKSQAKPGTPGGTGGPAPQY

ARK5 = molecular target: T31, ARK5 (Homo sapiens, UniProt O60285)
T31 construct: DNA label (qPCR read-out); purchased KINOMEscan scanMAX panel (DiscoveRx)

CAMK4 = molecular target: T32, CAMK4 (Homo sapiens, UniProt Q16566)
T32 construct: DNA label (qPCR read-out); purchased KINOMEscan (ScanMAX panel service)
T32 sequence (Q16566 whole entry): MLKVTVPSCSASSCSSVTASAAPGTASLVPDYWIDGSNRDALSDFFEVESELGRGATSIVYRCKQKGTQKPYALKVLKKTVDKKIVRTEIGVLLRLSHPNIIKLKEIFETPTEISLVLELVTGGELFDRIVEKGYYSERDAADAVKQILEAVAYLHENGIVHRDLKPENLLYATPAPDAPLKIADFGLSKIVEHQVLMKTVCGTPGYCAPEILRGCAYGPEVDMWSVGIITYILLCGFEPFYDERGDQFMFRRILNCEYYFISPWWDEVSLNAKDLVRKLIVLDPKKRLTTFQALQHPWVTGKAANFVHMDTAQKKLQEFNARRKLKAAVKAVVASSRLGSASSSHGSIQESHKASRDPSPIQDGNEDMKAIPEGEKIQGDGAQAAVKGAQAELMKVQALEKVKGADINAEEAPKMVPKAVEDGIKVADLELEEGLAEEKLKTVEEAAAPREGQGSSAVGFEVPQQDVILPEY

Compound	% Ctrl (YANK2)	% Ctrl (AURKA)	% Ctrl (p38-beta)	% Ctrl (DRAK1)	% Ctrl [1]	% Ctrl (AAK1)	% Ctrl (GAK)	% Ctrl (MYLK)	% Ctrl (BMPR1B)	% Ctrl (DAPK2)	% Ctrl (IKK-beta)	% Ctrl (MAPKAPK5)	% Ctrl (SRPK2)	% Ctrl (TBK1)	% Ctrl (CDK11 (CDK19))	% Ctrl (DCAMKL1)	% Ctrl (BMPR2)	% Ctrl [2]	% Ctrl (TTK)	% Ctrl (PIK3CA(H1047L))	further results
[2H]C([2H])([2H])N(C(=O)c1ccc(N2CCCN(c3ccnc4sc(C(N)=O)c(N)c34)CC2)cc1)C([2H])([2H])[2H] [15u_D6, 3-amino-4-(4-(4-(bis(methyl-d3)carbamoyl)phenyl)-1,4-diazepan-1-yl)thieno[2,3-b]pyridine-2-carboxamide]	84 % Ctrl	99 % Ctrl	97 % Ctrl	100 % Ctrl	93 % Ctrl	90 % Ctrl	94 % Ctrl	71 % Ctrl	62 % Ctrl	85 % Ctrl	71 % Ctrl	64 % Ctrl	100 % Ctrl	97 % Ctrl	0 % Ctrl	89 % Ctrl	88 % Ctrl	79 % Ctrl	80 % Ctrl	80 % Ctrl	% Ctrl (YANK3): 97 % Ctrl; % Ctrl (ALK(C1156Y)): 78 % Ctrl; % Ctrl (STK36): 100 % Ctrl; % Ctrl [3]: 82 % Ctrl; % Ctrl (LIMK2): 98 % Ctrl; % Ctrl (TSSK1B): 99 % Ctrl; % Ctrl [4]: 100 % Ctrl; % Ctrl (ERK1): 97 % Ctrl; % Ctrl (MET(Y1235D)): 100 % Ctrl; % Ctrl (PRKG2): 90 % Ctrl; % Ctrl (EPHB4): 100 % Ctrl; % Ctrl (ARK5): 77 % Ctrl; % Ctrl (CAMK4): 79 % Ctrl
CN(C)C(=O)c1ccc(N2CCCN(c3ccnc4sc(C(N)=O)c(N)c34)CC2)cc1 [15u, 3-amino-4-(4-(4-(dimethylcarbamoyl)phenyl)-1,4-diazepan-1-yl)thieno[2,3-b]pyridine-2-carboxamide]	89 % Ctrl	98 % Ctrl	100 % Ctrl	100 % Ctrl	100 % Ctrl	94 % Ctrl	88 % Ctrl	74 % Ctrl	100 % Ctrl	75 % Ctrl	89 % Ctrl	100 % Ctrl	93 % Ctrl	99 % Ctrl	13 % Ctrl	100 % Ctrl	79 % Ctrl	94 % Ctrl	83 % Ctrl	94 % Ctrl	% Ctrl (YANK3): 81 % Ctrl; % Ctrl (ALK(C1156Y)): 100 % Ctrl; % Ctrl (STK36): 100 % Ctrl; % Ctrl [3]: 95 % Ctrl; % Ctrl (LIMK2): 91 % Ctrl; % Ctrl (TSSK1B): 80 % Ctrl; % Ctrl [4]: 99 % Ctrl; % Ctrl (ERK1): 100 % Ctrl; % Ctrl (MET(Y1235D)): 100 % Ctrl; % Ctrl (PRKG2): 98 % Ctrl; % Ctrl (EPHB4): 100 % Ctrl; % Ctrl (ARK5): 57 % Ctrl; % Ctrl (CAMK4): 96 % Ctrl
